Assays:
JNK1 kinase = target: T1, JNK1 kinase (Homo sapiens, UniProt P45983); test: JNK1 activity screening (time-resolved fluorometric HTRF kinase assay); assay type: biochemical; settings: enzymatic assay, activity level
T1 construct: purchased Carna Biosciences 04-163
Experimental: JNK1 activity screening. JNK1 activity was detected using a 96-well (Cisbio, 66PL96025) time-resolved fluorometric assay. The JNK1 assay was conducted in the following assay buffer: 10 mM MgCl2 (Sigma, M1028), 1 mM MnCl2 (Sigma, M1787), 1 mM DTT (Sigma, D0632) and 1× Enzymatic buffer/kinase (Cisbio, 62EZBFDC). By using the assay buffer, 3 μL of 0.1 ng/μL JNK1 kinase (Carna Biosciences, 04-163) was added to a 96-well microplate, and then 4 μL of a compound diluted appropriately (with a DMSO content of 2.5%) was added. The resulting mixture was incubated at room temperature for 0.5 h. To start the reaction, the assay buffer was used to mix 0.003 μM ATP (Aladdin, A7699) and 30 μM substrate ATF2-GST fusion (Cisbio, 64CUS000AFPEB), and 3 μL of the mixed solution was added to the microplate. The resulting mixture was incubated at room temperature for 2.5 h. HTRF detection buffer ([…], 62SDBRDD) was used then to prepare a mixture of 5 μg/mL MAb Anti GST-XL665 (Cisbio, 61GSTXLA) and 0.045 μg/mL PAb Anti-phospho ATF2-K (Cisbio, 61P12KAZ), and 10 μL of the mixture was added to the plate to terminate the reaction. After incubation for about 12 h, the plate was read on a Perkin-Elmer Envision reader.

[1] = system: RAW264.7 phosphorylated c-Jun (Ser63); test: RAW264.7 phosphorylated c-Jun whole cell assay; assay type: cell-based; settings: Mus musculus; cytological assay, activity level; lipopolysaccharide-activated RAW264.7 cells, phospho-c-Jun (Ser63) ELISA
Experimental: RAW264.7 (ATCC TIB-71) cells were purchased from BeNa Culture Collection and maintained in a high-glucose DMEM medium (Gibco) containing 10% fetal bovine serum (Gibco) and 1% penicillin-streptomycin (Gibco). All cells were cultured at 37° C. in 95% air and 5% CO2. All cells were seeded into 120 μL of cell culture medium in a 96-well plate at a density of 2×10^5 cells per well. The stock solution of compound (15 mM) was serially diluted in DMSO (Sigma) and further diluted in growth medium, and it was then added at 15 μL per well as a 10× concentrated solution, well mixed with the cells and incubated with the cells for 30 min. Concentration of the compound vehicle (DMSO) in each well was 0.2%. After incubation for 30 min, the cells were activated with […] lipopolysaccharide (Sigma). Lipopolysaccharide was added to the growth medium as a 10× concentrated solution at 15 μL per well. The cell plate was incubated for 1 h, and then all the medium was removed. The level of C-Jun protein with phosphorylation of serine at site 63 was measured using the whole cell lysate kit-phosphorylated C-Jun assay (PathScan® Phospho-c-Jun (Ser63) Sandwich ELISA Kit) (CST, 7145C) according to the manufacturer's instructions.

T1 sequence (P45983 whole entry): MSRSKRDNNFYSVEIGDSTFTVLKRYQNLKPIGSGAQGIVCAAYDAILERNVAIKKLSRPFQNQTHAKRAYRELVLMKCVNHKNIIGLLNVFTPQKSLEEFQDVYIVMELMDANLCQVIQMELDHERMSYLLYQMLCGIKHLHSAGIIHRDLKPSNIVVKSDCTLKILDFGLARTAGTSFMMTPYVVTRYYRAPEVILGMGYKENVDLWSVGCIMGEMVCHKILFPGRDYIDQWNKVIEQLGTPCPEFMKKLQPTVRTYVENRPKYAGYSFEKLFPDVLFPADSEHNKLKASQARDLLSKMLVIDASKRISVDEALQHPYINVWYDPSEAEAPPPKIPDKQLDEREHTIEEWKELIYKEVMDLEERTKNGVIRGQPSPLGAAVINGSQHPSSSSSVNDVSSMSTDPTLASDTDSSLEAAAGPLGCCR

IC50 (JNK1 kinase)	IC50 [1]	Compound
< 0.1 µM	> 1 µM	CC(C)(C)Nc1ncc(C(N)=O)c(NC2CCCNC2)n1 (centres unmarked) [Compound T025, 2-(tert-butylamino)-4-(piperidin-3-ylamino)pyrimidine-5-carboxamide]
0.1 to 0.5 µM	0.1 to 0.5 µM	CC(=O)c1cnc(NC(C)(C)C)nc1N[C@@H]1CC[C@@H](C)[C@H](O)C1 [Compound T067, 1-(2-(tert-butylamino)-4-(((1R,3R,4R)-3-hydroxy-4-methylcyclohexyl)amino)pyrimidin-5-yl)ethan-1-one]
0.5 to 1 µM	> 1 µM	C[C@@H]1CC[C@@H](Nc2nc(NC(C)(C)C)ncc2Cl)C[C@H]1O [Compound T013, (1R,2R,5R)-5-((2-(tert-butylamino)-5-chloropyrimidin-4-yl)amino)-2-methylcyclohexan-1-ol]
> 1 µM	> 1 µM	CC(C)(C)Nc1ncc(C(N)=O)c(NC2CCCN(C(=O)CC(=O)O)C2)n1 (stereo not drawn) [Compound T008, 3-(3-((2-(tert-butylamino)-5-carbamoylpyrimidin-4-yl)amino)piperidin-l-yl)-3-oxopropanoic acid]
> 1 µM	> 1 µM	C[C@@H]1CC[C@@H](Nc2nc(NC(C)(C)C)ncc2N)C[C@H]1O [Compound T063, (1R,2R,5R)-5-((5-amino-2-(tert-butylamino)pyrimidin-4-yl)amino)-2-methylcyclohexan-1-ol]
0.5 to 1 µM	> 1 µM	CC(C)C(=O)c1cnc(NC(C)(C)C)nc1N[C@@H]1CC[C@@H](C)[C@H](O)C1 [Compound T070, 1-(2-(tert-butylamino)-4-(((1R,3R,4R)-3-hydroxy-4-methylcyclohexyl)amino)pyrimidin-5-yl)-2-methylpropan-1-one]
> 1 µM	> 1 µM	CC#Cc1cnc(NC(C)(C)C)nc1N[C@@H]1CC[C@@H](C)[C@H](O)C1 [Compound T065, (1R,2R,5R)-5-((2-(tert-butylamino)-5-(prop-1-yn-1-yl)pyrimidin-4-yl)amino)-2-methylcyclohexan-1-ol]
0.5 to 1 µM	> 1 µM	C[C@@H]1CC[C@@H](Nc2cc(NC3CCC3)ncc2C(N)=O)C[C@H]1O [Compound T049, 6-(cyclobutylamino)-4-(((1R,3R,4R)-3-hydroxy-4-methylcyclohexyl)amino) nicotinamide]
> 1 µM	> 1 µM	C[C@@H]1CC[C@@H](Nc2nc(NC(C)(C)C)ncc2[N+](=O)[O-])C[C@H]1O [Compound T062, (1R,2R,5R)-5-((2-(tert-butylamino)-5-nitropyrimidin-4-yl)amino)-2-methylcyclohex-1-ol]
> 1 µM	> 1 µM	C[C@@H]1CC[C@@H](Nc2cc(NC3CCCCC3)ncc2C(N)=O)C[C@H]1O [Compound T054, 6-(cyclohexylamino)-4-(((1R,3R,4R)-3-hydroxy-4-methylcyclohexyl)amino) nicotinamide]
< 0.1 µM	< 0.1 µM	COc1ccc(CNc2ncc(C(N)=O)c(N[C@@H]3CC[C@@H](C)[C@H](O)C3)n2)cc1 [Compound T074, 4-(((1R,3R,4R)-3-hydroxy-4-methylcyclohexyl)amino)-2-((4-methoxybenzyl)amino)pyrimidine-5-carboxamide]
0.5 to 1 µM	> 1 µM	C#Cc1cnc(NC(C)(C)C)nc1N[C@@H]1CC[C@@H](C)[C@H](O)C1 [Compound T064, (1R,2R,5R)-5-((2-(ter-butylamino)-5-ethynylpyrimidin-4-yl)amino)-2-methylcyclohex-1-ol]
< 0.1 µM	0.1 to 0.5 µM	C[C@@H]1CC[C@@H](Nc2nc(Nc3ccc(N4CCN(C)CC4)cc3)ncc2C(N)=O)C[C@H]1O [Compound T073, 4-(((1R,3R,4R)-3-hydroxy-4-methylcyclohexyl)amino)-2-((4-(4-methylpiperazin-1-yl)phenyl)amino)pyrimidine-5-carboxamide]
> 1 µM	> 1 µM	C[C@@H]1CC[C@@H](Nc2nc(NC(C)(C)C)ncc2C(C)(C)O)C[C@H]1O [Compound T005, (1R,2R,5R)-5-((2-(tert-butylamino)-5-(2-hydroxypropan-2-yl)pyrimidin-4-yl)amino)-2-methylcyclohexan-1-ol]
> 1 µM	> 1 µM	C[C@@H]1CC[C@@H](Nc2cc(NC3CC3O)ncc2C(N)=O)C[C@H]1O (stereo partly drawn) [Compound T059, 4-(((1R,3R,4R)-3-hydroxy-4-methylcyclohexyl)amino)-6-((2-hydroxycyclopropyl)amino)nicotinamide]
< 0.1 µM	0.1 to 0.5 µM	CC(C)(C)Nc1ncc(C(N)=O)c(Nc2cccc(CO)c2)n1 [Compound T026, 2-(tert-butylamino)-4-((3-(hydroxymethyl)phenyl)amino)pyrimidine-5-carboxamide]
0.5 to 1 µM	> 1 µM	C[C@@H]1CC[C@@H](Nc2nc(N3CCNC(=O)C3)ncc2C(N)=O)C[C@H]1O [Compound T023, 4-(((1R,3R,4R)-3-hydroxy-4-methylcyclohexyl)amino)-2-(3-oxopiperazin-1-yl)pyrimidine-5-carboxamide]
> 1 µM	> 1 µM	C[C@@H]1CC[C@@H](Nc2nc(NC(C)(C)C)ncc2C(F)F)C[C@H]1O [Compound T028, (1R,2R,5R)-5-((2-(tert-butylamino)-5-(difluoromethyl)pyrimidin-4-yl)amino)-2-methylcyclohex-1-ol]
0.5 to 1 µM	> 1 µM	C[C@@H]1CC[C@@H](Nc2nc(OC3CC3)ncc2C(N)=O)C[C@H]1O [Compound T042, 2-cyclopropoxy-4-(((1R,3R,4R)-3-hydroxy-4-methylcyclohexyl)amino) pyrimidine-5-carboxamide]
> 1 µM	> 1 µM	COC(=O)c1cnc(NC(C)(C)C)nc1N[C@@H]1CC[C@@H](C)[C@H](O)C1 [Compound T005A, Methyl 2-(tert-butylamino)-4-(((IR,3R,4R)-3-hydroxy-4-methylcyclohexyl)amino) pyrimidine-5-carboxylate]
> 1 µM	> 1 µM	CC(C)(C)Nc1ncc(C(N)=O)c(NCC2CCC(=O)N2)n1 (centres unmarked) [Compound T009, 2-(tert-butylamino)-4-(((5-oxopyrrolidin-2-yl)methyl)amino)pyrimidine-5-carboxamide]
> 1 µM	> 1 µM	C[C@@H]1CC[C@@H](Nc2cc(NC3C4C[C@H]43)ncc2C(N)=O)C[C@H]1O (stereo partly drawn) [Compound T060, 6-(((1R,2R)-bicyclo[1 1.0]butan-2-yl)amino)-4-(((1R,3R,4R)-3-hydroxy-4-methylcyclohexyl)amino)nicotinamide]
0.1 to 0.5 µM	0.5 to 1 µM	CC(C)(C)Nc1ncc(C(N)=O)c(N2CCCC(CO)C2)n1 (centres unmarked) [Compound T018, 2-(tert-butylamino)-4-(3-(hydroxymethyl)piperidin-1-yl)pyrimidine-5-carboxamide]
0.1 to 0.5 µM	0.1 to 0.5 µM	C[C@@H]1CC[C@@H](Nc2nc(NC(C)(C)C)ncc2C#N)C[C@H]1O [Compound T001A, 2-(tert-butylamino)-4-(((1R,3R,4R)-3-hydroxy-4-methylcyclohexyl)amino) pyrimidine-5-carbonitrile]
< 0.1 µM	0.5 to 1 µM	C[C@@H]1CC[C@@H](Nc2nc(NC(C)(C)C)ncc2Br)C[C@H]1O [Compound T033, (1R,2R,5R)-5-((5-bromo-2-(tert-butylamino)pyrimidin-4-yl)amino)-2-methylcyclohexan-1-ol]
> 1 µM	> 1 µM	C[C@@H]1CC[C@@H](Nc2nc(NC(C)(C)C)ncc2CF)C[C@H]1O [Compound T030, (1R,2R,5R)-5-((2-(tert-butylamino)-5-(fluoromethyl)pyrimidin-4-yl)amino)-2-methylcyclohex-1-ol]
> 1 µM	> 1 µM	CS(=O)(=O)CCn1ccc(Nc2ccnc(N[C@H]3CC[C@H](O)CC3)n2)n1 [Compound T037, (1R,4R)-4-((4-((1-(2-(methylsulfonyl)ethyl)-1H-pyrazol-3-yl)amino)pyrimidin-2-yl)amino)cyclohexan-1-ol]
0.1 to 0.5 µM	0.5 to 1 µM	CC(C)(C)Nc1ncc(C(N)=O)c(N2CCC(CO)C2)n1 (centres unmarked) [Compound T019, 2-(tert-butylamino)-4-(3-(hydroxymethyl)pyrrolidin-1-yl)pyrimidine-5-carboxamide]
